According to patent EP1333824B1, “TREATMENT OF SEXUAL DYSFUNCTION WITH BOMBESIN RECEPTOR ANTAGONISTS” (Warner-Lambert Company LLC, priority 2000, dated 2002):

How the values were obtained:
[1] = system: Ovariectomised adult female Sprague Dawley rats; test: Female rat sexual receptivity test (lordosis quotient, LQ); type: in vivo; details: for lordosis quotient (LQ): quinelorane 6.25µg/kg s.c. 90min
Method: Ovariectomised adult female Sprague Dawley rats (180-200g, from Charles River) were housed in groups of 6 in a reversed lighting system of 12h light:dark (lights off 7.00-19.00h). Two weeks after ovariectomy they were used for sexual activity tests. The experiments started at least 5h into the dark period.
It was administered intraperitoneally (i.p.) at a dose of 10mg/kg, in a dosing volume of 1ml/kg. […] Forty eight hours before testing, ovariectomised female rats (as described above), were primed with 5µg oestradiol benzoate dissolved in corn oil and injected subcutaneously. […] The females were placed with a series of vigorous male rats and subjected to 10 mounts.
The lordotic response of the animal was recorded and expressed as a percentage of the mounts (i.e. lordosis quotient, LQ), as previously described. Animals showing LQ<20 were considered non-receptive and were included in the study. Each rat was tested prior to administration of the compound and then tested similarly post-injection.
The above compound was dissolved in PEG200 vehicle and administered orally. […] Both compounds were administered in a 1ml/kg volume.
Forty eight hours before tests, the animals were primed with 5µg oestradiol benzoate (Sigma Chemical. Co. Ltd., UK) dissolved in corn oil and injected subcutaneously. The females were placed with a series of vigorous male rats and subjected to 10 mounts. The lordotic response of the animal was recorded and expressed as a percentage of the mounts (i.e. lordosis quotient, LQ). […] Animals showing higher LQ were not included in the study. Each rat was tested prior to administration of the compound and then tested similarly at 1h and 90min post-injection of the above compound or quinelorane respectively.

[2] = system: conscious male rat; test: Penile intracavernosal pressure in the conscious male rat (telemetry); type: in vivo
Method: In addition to treating women with FSD, bombesin antagonists will be useful in treating male erectile dysfunction (MED. Both the non-selective BB1/2 antagonists (Compound 1; 10mg/kg sc) and the selective BB1 receptor antagonist (Compound 3; 15mg/kg sc) is pro-erectile in a conscious rat model of penile erection (Figures 24 and 25). Erectile responses were recorded by measuring intracavernosal pressure using surgically implanted telemetric device. The specific details the surgical procedures, data acquisition and analysis can be found in detail in Bemabe 1999.
Compound 1 and compound 3 were dissolved in 50% β-cyclodextrin in saline. They were administered at a dose of 15mg/kg subcutaneously (sc). […] These increases equate to penile erection. Both Compounds 1 and 3 induced a number of erections in a similar manner to those observed with apomorphine or melanotan-II - both of which are clinically proven agents that are effective in the treatment of MED. Moreover the amplitude of the increases observed were similar to those observed with apomorphine or melanotan-II. The mechanism of action is thought to be similar to the effects on female genital flow ie CNS potentiation of the descending neuronal pathways that control penile erection.

[3] = system: Female New Zealand rabbits; test: Pelvic nerve-stimulated female genital blood flow, anaesthetised rabbit model of sexual arousal; type: in vivo
Method: Female New Zealand rabbits (~2.5kg) were pre-medicated with a combination of Medetomidine (Domitor®) 0.5ml/kg i.m., and Ketamine (Vetalar®) 0.25ml/kg i.m. whilst maintaining oxygen intake via a face mask. The rabbits were tracheotomised using a Portex™ uncuffed endotracheal tube 3 ID., connected to ventilator and maintained at a ventilation rate of 30-40 breaths per minute, with an approximate tidal volume of 18-20 ml, and a maximum airway pressure of 10 cm H2O. Anaesthesia was then switched to Isoflurane and ventilation continued with O2 at 21/min. The right marginal ear vein was cannulated using a 23G or 24G catheter, and Lactated Ringer solution perfused at 0.5ml/min. The rabbit was maintained at 3% Isoflurane during invasive surgery, dropping to 2% for maintenance anaesthesia.
The left groin area of the rabbit was shaved and a vertical incision was made approximately 5cm in length along the thigh. The femoral vein and artery were exposed, isolated and then cannulated with a PVC catheter (17G) for the infusion of drugs and compounds. Cannulation was repeated for the femoral artery, inserting the catheter to a depth of 10cm to ensure that the catheter reached the abdominal aorta. This arterial catheter was linked to a Gould system to record blood pressure. Samples for blood gas analysis were also taken via the arterial catheter. Systolic and diastolic pressures were measured, and the mean arterial pressure calculated using the formula (diastolic x2 + systolic) ö3. Heart rate was measured via the pulse oxymeter and Po-ne-mah data acquisition software system (Ponemah Physiology Platform, Gould Instrument Systems Inc). A ventral midline incision was made into the abdominal cavity. The incision was about 5cm in length just above the pubis. The fat and muscle was bluntly dissected away to reveal the hypogastric nerve which runs down the body cavity. It was essential to keep close to the side curve of the pubis wall in order to avoid damaging the femoral vein and artery which lie above the pubis. The sciatic and pelvic nerves lie deeper and were located after further dissection on the dorsal side of the rabbit. Once the sciatic nerve is identified, the pelvic nerve was easily located. The term pelvic nerve is loosely applied; anatomy books on the subject fail to identify the nerves in sufficient detail. However, stimulation of the nerve causes an increase in vaginal and clitoral blood flow, and innervation of the pelvic region. The pelvic nerve was freed away from surrounding tissue and a Harvard bipolar stimulating electrode was placed around the nerve. […] A frequency response curve was determined at the start of each experiment in order to determine the optimum frequency to use as a sub-maximal response, normally 4Hz. […]

[4] = system: Sprague Dawley male rats; test: Sexual behaviour of fluoxetine-induced sexually dysfunctional male rats; type: in vivo, rat; details: fluoxetine 20mg/kg i.p. 3 days (vs vehicle+vehicle)
Method: (§1) Sprague Dawley male rats (Charles River, UK) were kept, 4 rats per cage, in a reversed lighting regime (12:12 hours, lights off at 5.00 h), with free access to food and water. The rats were pre-selected by being presented with a receptive female at 4 days intervals, i.e. every third day (having 2 clear days between presentations) until completing 6-7 trials of baseline determination. The animals showing consistently vigorous behaviour (ejaculatory latencies <300s) were chosen for further experiments. Animals were treated for 3 consecutive days with either vehicle (water) or fluoxetine (20mg/kg, i.p., in a 2ml/kg dosing volume). […] All treatments were administered i.p. in a 1ml/kg volume, 1h before tests.
(§2) For all the sexual behaviour tests, the males were placed in an observation arena (50-60 cm diameter), starting 5 hours into the dark cycle and observed under red illumination. Three to 4 minutes after placing the male in the arena, a receptive female (ovariectomised, bearing a 7 mm Silastic implant of oestradiol benzoate) was introduced to the arena and the following parameters noted: Mount Latency: time (in seconds) taken between introduction of female and first mount. A maximum time of 15 minutes (900 seconds) was allowed, and the test terminated if no mounts were recorded within that time (Figure 16), Ejaculation Latency: time (in seconds) taken from first intromission to ejaculation. A maximum time of 30 minutes (1800 seconds) was given, and the test terminated if ejaculation was not achieved in that time (Figure 17), Percentage of males achieving ejaculation within 30 minutes was calculated (Figure 18).
A one-way ANOVA followed by Dunnett's t test was used to compare the fluoxetine+vehicle group and other groups for mount and ejaculatory latencies. Percentage of animals ejaculating was analysed using a Chi-square test followed by Fisher's test. (*: P<0.05, **: P<0.01, ***: P<0.001; n=15-19).

[5] = system: Sprague Dawley male rats; test: Sexual behaviour of normal (sexually vigorous) male rats; type: in vivo, rat; details: Compound (1) 15mg/kg or Fluoxetine 20mg/kg i.p. 1h before tests, vs vehicle
Method: as §1, with “days” for “trials”, “experiments (n=24).” for “experiments.”, “randomised into three groups. All animals received all three treatments following a latin-square design. Treatments were administered once a week, with a baseline test in between treatments (4” for “treated for 3 consecutive”, “intervals between baseline and test day).” for “with either vehicle (water) or fluoxetine (20mg/kg, i.p., in a 2ml/kg dosing volume).”
as §2, with “11), Intromission Latency: time (in seconds) taken between introduction of female and first intromission (Figure 12), Number of Mounts: to reach ejaculation. When ejaculation was not reached, the number of mounts was not analyzed, Number of Intromissions: to reach ejaculation. When ejaculation was not reached, the number of intromissions was not analyzed (Figure 13 is number of mounts + intromissions),” for “16),”, “14), and Refractory Period: time (in seconds) taken from ejaculation to the first mount” for “17), Percentage”, “the next series of sexual activity. In those animals reaching” for “males achieving”, “the test” for “within 30 minutes”, “terminated at the end of the refractory period, as indicated by the first mount of the next sexual cycle” for “calculated”, “15).” for “18).”
A one-way ANOVA followed by Dunnett's t test was used to compare treated vs vehicle groups each day of testing, for all the sexual behaviour parameters.

[6] = system: Ovariectomised adult female Sprague Dawley rats; test: Female rat sexual proceptivity test (time investigating male vs female stimulus); type: in vivo
[7] = Example 31, after vs before administration, Compound (2) oral 10-100mg/kg in PEG200, 1h
[8] = day 4 Compound (1) 15mg/kg or yohimbine 2mg/kg i.p. 1h before tests (vs fluoxetine+vehicle)

CCCN1CCC[C@@H]2Cc3nc(N)ncc3C[C@H]21 [quinelorane, reference compound]
lordosis quotient (LQ) ([1]; Example 2, after vs before administration (paired t test), Compound (1) 10mg/kg i.p. 1h): significantly (P<0.01) increased the LQ
lordosis quotient (LQ) [1, 7]: significantly (P<0.01) increased the LQ

C[C@@](Cc1c[nH]c2ccccc12)(NC(=O)Nc1ccc([N+](=O)[O-])cc1)C(=O)NCC1(c2ccc(N)cc2)CCCCC1 [Compound 3, (2S)-N-{[1-(4-aminophenyl)cyclohexyl]methyl}-3-(1H-indol-3-yl)-2-methyl-2-{[(4-nitroanilino)-carbonyl]amino}propanamide]
erectile response (penile erection) ([2]; Compound 1 10mg/kg sc, Compound 3 15mg/kg sc): pro-erectile
intracavernosal pressure ([2]; one hour after 10mg/kg sc Compound 1, 45 minutes after 15mg/kg sc compound 3): significant increases in intracavernosal pressure
basal genital blood flow in the absence of PNS ([3]; 15mg/kg sc): no effect
pelvic-nerve stimulated (PNS) increases in genital (vaginal and clitoral) blood flow ([3]; 15mg/kg sc in 50% β-cyclodextrin in saline): potent enhancer

CNCCC(Oc1ccc(C(F)(F)F)cc1)c1ccccc1 (stereo not drawn) [fluoxetine, reference compound]
Ejaculation latency [4, 8]: significantly increased
Mount latency [4, 8]: significantly increased
percentage of animals ejaculating ([4]; within 30 minutes, day 4 Compound (1) 15mg/kg or yohimbine 2mg/kg i.p. (vs fluoxetine+vehicle)): significantly lower
Ejaculation latency [5]: also increased
Intromission latency [5]: significantly increased
Mount latency [5]: significantly increased
Refractory period [5]: also increased
number of mounts and intromissions required to achieve ejaculation [5]: No changes

COc1ccc(C2(CNC(=O)[C@](C)(Cc3c[nH]c4ccccc34)Nc3nc(-c4ccc([N+](=O)[O-])cc4)co3)CCCCC2)nc1 [Example 9, (S)-3-(1H-Indol-3-yl)-N-[1-(5-methoxy-pyridin-2-yl)-cyclohexylmethyl]-2-methyl-2-[4-(4-nitro-phenyl)-oxazol-2-ylamino]-propionamide]
lordosis quotient (LQ) [1, 7]: increased the LQ
minimal effective dose ([1]; Rattus norvegicus, Example 31, single oral administration in PEG200, 1h after administration, P<0.01, read-out: MED (increase in LQ)): 100 mg/kg
MED (increase in percentage of time spent investigating the male stimulus) ([6]; Example 29, oral, 30-100mg/kg in PEG 200 vehicle, 1h before test): 100 mg/kg
percentage of time spent investigating the male stimulus ([6]; Example 29, oral, dose-dependent 30-100mg/kg in PEG 200, 1h before test): increased the percentage of time spent investigating the male stimulus
increase in potency compared to the oral results obtained in the PEG200 vehicle ([6]; Example 30, methyl cellulose MED vs PEG200 MED): 10 fold
MED (increase in percentage of time spent investigating the male stimulus) ([6]; Example 30, p.o., 3-30mg/kg in 0.5% methyl cellulose, 1h before tests): 10 mg/kg
percentage of time spent investigating the male stimulus ([6]; Example 30, p.o., dose-dependent 3-30mg/kg in 0.5% methyl cellulose): increased the percentage of time spent investigating the male stimulus
